# Assay results reported in patent US7435557B2 (priority 2002, dated 2008).
# Assays:
# GTP cyclohydrolase II = test: GTP cyclohydrolase activity assay coupled to formate dehydrogenase (NADH formation, absorption at 340 nm); assay type: biochemical, Ashbya gossypii; conditions: cell free extract, 2.5 mM GTP, 0.5 mM NAD, 2 units/ml formate dehydrogenase; FIG. 1
# Procedure: Ashbya gossypii cells may be obtained after 2 days from a culture in 3% (w/v) malt extract +0.3% (w/v) difco-soyton, pH 5.6 at 28° C. A cell-free extract can be obtained by mechanical breakage of the cells with a kitchen blender in 50 mM imidazole buffer pH 7 containing 1 mM EDTA-Na salt, 5 mM MgSO4, 10 mM KCl, 5 mM dithiothreitol and 30% (v/v) glycerol and separation of unbroken cells and debris by centrifugation.
# (§1) The assay is performed in a suitable buffer e.g. Tris/HCl, pH 7.8 including 1 mM Mg.Cl2, 1 mM DTT, 0.5 mM NAD, 2 units/ml formate dehydrogenase and 2.5 mM GTP Li salt. After the addition of the GTP cyclohydrolase comprising cell free extracts of step A), the reaction was monitored by measuring the absorption at 340 nm.
# After dissolving the respective candidate compounds in a suitable solvent e.g. DMSO, an aliquot of the afore made solution is added to the reaction mixture. The enzyme activity of this sample is compared with the activity of a control comprising the pure solvent instead of the candidate compound. The resulting relative activity was calculated as percent inhibition in relation to the sample without the candidate compound.
# In FIG. 1, the GTP dependant formation of NADH in the reaction mixture and inhibition by 3-Butyl-10-(3-chlorophenyl)-10H-pyrimido[4,5-b]quinoline-2,4-dione is shown.
# Septoria tritici = assay type: cell-based; conditions: 18° C., 7 days; 405 nm
# formate dehydrogenase = test: Specificity control: substrate GTP replaced with formic acid; assay type: biochemical; conditions: formate instead of GTP; FIG. 2
# Procedure: as §1
# To distinguish between the inhibition of GTP cyclohydrolase and formate dehydrogenase in the above-mentioned assay, the subtrate GTP is replaced with formic acid.
# Phytophthora infestans = assay type: cell-based; conditions: 125 ppm compound solution, 50 μl + 50 μl spore suspension, 18° C., 7 days, 405 nm
# Pyricularia oryzae = assay type: cell-based; conditions: 125 ppm compound solution, 50 μl + 50 μl spore suspension, 18° C., 7 days, 405 nm
smiles,measurement,setting,value
"CCCCn1c(=O)nc2n(-c3cccc(Cl)c3)c3ccccc3cc-2c1=O [3-butyl-10-(3-chlorophenyl)-10H-pyrimido[4,5-b]quinoline-2,4-dione]",inhibition of GTP dependent formation of NADH,GTP cyclohydrolase II,inhibition
same,% growth compared with the 0 ppm control,Septoria tritici,0%
same,inhibition of formate dehydrogenase alone,formate dehydrogenase,No inhibition
same,% growth compared with the 0 ppm control,Phytophthora infestans,39.9%
same,% growth compared with the 0 ppm control,Pyricularia oryzae,47.6%
